Target: T1, human GPR17 receptor (Homo sapiens, UniProt Q13304)
T1 construct: host or cells: HEK-293
Assay: Calcium mobilization functional assay (Fluo-8, FLIPR TETRA) in HEK-293 hGPR17 (Gα-q assay)
Format: cell-based
Settings: antagonism of MDL29,951 (~EC80) induced Ca2+ signal; cell line (HEK-293 hGPR17 or HEK-293 Suchi5 hGPR17) not given
Outline: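 Fluo-8-loaded HEK-293 hGPR17 cells (60 min dye loading, room temperature) were preincubated with compound for twenty minutes, then challenged with agonist MDL29,951 at ~EC80, 500 nM. Intracellular calcium release via Gα-q was recorded as FLIPR fluorescence for a further 2 minutes; compounds tested in duplicate.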

T1 sequence (Q13304 whole entry): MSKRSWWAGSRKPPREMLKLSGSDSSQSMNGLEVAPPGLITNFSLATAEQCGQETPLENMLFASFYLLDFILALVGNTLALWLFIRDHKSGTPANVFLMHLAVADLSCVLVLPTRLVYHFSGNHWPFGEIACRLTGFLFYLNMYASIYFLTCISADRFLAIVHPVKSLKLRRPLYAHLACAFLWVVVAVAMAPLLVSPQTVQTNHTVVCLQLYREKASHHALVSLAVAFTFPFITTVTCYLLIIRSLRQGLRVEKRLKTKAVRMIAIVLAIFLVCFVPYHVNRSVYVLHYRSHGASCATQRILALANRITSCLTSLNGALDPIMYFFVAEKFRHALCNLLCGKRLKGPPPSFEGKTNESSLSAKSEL

SMILES | IC50
O=S(=O)(Nc1cc(F)c(C(F)(F)F)cc1F)c1c[nH]c(-c2csc(Cl)c2)c1 [Cpd 458, 5-(5-chlorothiophen-3-yl)-N-[2,5-difluoro-4-(trifluoromethyl)phenyl]-1H-pyrrole-3-sulfonamide] | 500 to 5000 nM
N#CCOc1cc(F)c(NS(=O)(=O)c2c[nH]c(-c3ccccc3Cl)c2)cc1F [Cpd 459, 5-(2-chlorophenyl)-N-[4-(cyanomethoxy)-2,5-difluorophenyl]-1H-pyrrole-3-sulfonamide] | < 500 nM
COc1nc(OCC(F)F)c(F)cc1NS(=O)(=O)c1c[nH]cc1-c1cccc(F)c1 [Cpd 460, N-[6-(2,2-difluoroethoxy)-5-fluoro-2-methoxypyridin-3-yl]-4-(3-fluorophenyl)-1H-pyrrole-3-sulfonamide] | 500 to 5000 nM
N#Cc1cc(F)c(NS(=O)(=O)c2c[nH]c(-c3c(F)cc(F)cc3F)c2)cc1F [Cpd 462, N-(4-cyano-2,5-difluorophenyl)-5-(2,4,6-trifluorophenyl)-1H-pyrrole-3-sulfonamide] | < 500 nM
O=S(=O)(Nc1cc(F)c(OCC(F)F)cc1F)c1c[nH]c(-c2ccccc2)c1 [Cpd 463, N-[4-(2,2-difluoroethoxy)-2,5-difluorophenyl]-5-phenyl-1H-pyrrole-3-sulfonamide] | 500 to 5000 nM
COc1cc(CC#N)cnc1NS(=O)(=O)c1c[nH]c(-c2ccccc2F)c1 [Cpd 464, N-[5-(cyanomethyl)-3-methoxypyridin-2-yl]-5-(2-fluorophenyl)-1H-pyrrole-3-sulfonamide] | 500 to 5000 nM
O=S(=O)(Nc1cc(F)c(C(F)(F)F)cc1F)c1c[nH]c(-c2cccc3cccnc23)c1 [Cpd 465, N-[2,5-difluoro-4-(trifluoromethyl)phenyl]-5-quinolin-8-yl-1H-pyrrole-3-sulfonamide] | 500 to 5000 nM
N#CCOc1cc(F)c(NS(=O)(=O)c2c[nH]cc2-c2cccc(F)c2)cc1F [Cpd 466, N-[4-(cyanomethoxy)-2,5-difluorophenyl]-4-(3-fluorophenyl)-1H-pyrrole-3-sulfonamide] | 500 to 5000 nM
COc1nc(Br)cnc1NS(=O)(=O)c1c[nH]cc1-c1cccc(F)c1 [Cpd 469, N-(5-bromo-3-methoxypyrazin-2-yl)-4-(3-fluorophenyl)-1H-pyrrole-3-sulfonamide] | 500 to 5000 nM
N#Cc1cc(F)c(NS(=O)(=O)c2c[nH]c(-c3cc(Cl)c(F)cc3F)c2)cc1Cl [Cpd 470, 5-(5-chloro-2,4-difluorophenyl)-N-(5-chloro-4-cyano-2-fluorophenyl)-1H-pyrrole-3-sulfonamide] | 500 to 5000 nM
Cc1cc(NS(=O)(=O)c2c[nH]c(-c3cc(Cl)c(F)cc3F)c2)c(F)cc1C#N [Cpd 471, 5-(5-chloro-2,4-difluorophenyl)-N-(4-cyano-2-fluoro-5-methylphenyl)-1H-pyrrole-3-sulfonamide] | 500 to 5000 nM
N#CCOc1cnc(NS(=O)(=O)c2c[nH]c(-c3ccccc3)c2)c(F)c1 [Cpd 472, N-[5-(cyanomethoxy)-3-fluoropyridin-2-yl]-5-phenyl-1H-pyrrole-3-sulfonamide] | 500 to 5000 nM
O=S(=O)(Nc1cc(F)c(OCC(F)F)cc1F)c1c[nH]c(-c2ccccn2)c1 [Cpd 473, N-[4-(2,2-difluoroethoxy)-2,5-difluorophenyl]-5-pyridin-2-yl-1H-pyrrole-3-sulfonamide] | 500 to 5000 nM
O=S(=O)(Nc1cc(F)c(OC(F)F)cc1F)c1c[nH]c(-c2ccoc2)c1 [Cpd 474, N-[4-(difluoromethoxy)-2,5-difluorophenyl]-5-(furan-3-yl)-1H-pyrrole-3-sulfonamide] | < 500 nM
O=S(=O)(Nc1cc(F)c(OC(F)F)cc1F)c1c[nH]c(-c2cccs2)c1 [Cpd 475, N-[4-(difluoromethoxy)-2,5-difluorophenyl]-5-thiophen-2-yl-1H-pyrrole-3-sulfonamide] | < 500 nM
O=S(=O)(Nc1cc(F)c(OC(F)F)cc1F)c1c[nH]c(-c2ccsc2)c1 [Cpd 476, N-[4-(difluoromethoxy)-2,5-difluorophenyl]-5-thiophen-3-yl-1H-pyrrole-3-sulfonamide] | < 500 nM
O=S(=O)(Nc1cc(F)c(Br)cc1F)c1c[nH]c(-c2ccoc2)c1 [Cpd 477, N-(4-bromo-2,5-difluorophenyl)-5-(furan-3-yl)-1H-pyrrole-3-sulfonamide] | < 500 nM
O=S(=O)(Nc1cc(F)c(Br)cc1F)c1c[nH]c(-c2cccs2)c1 [Cpd 478, N-(4-bromo-2,5-difluorophenyl)-5-(thiophen-2-yl)-1H-pyrrole-3-sulfonamide] | < 500 nM
O=S(=O)(Nc1cc(F)c(Br)cc1F)c1c[nH]c(-c2ccsc2)c1 [Cpd 479, N-(4-bromo-2,5-difluorophenyl)-5-thiophen-3-yl-1H-pyrrole-3-sulfonamide] | < 500 nM
O=S(=O)(Nc1cc(F)c(OC(F)F)cc1F)c1c[nH]cc1Cc1ccccc1F [Cpd 484, N-[4-(difluoromethoxy)-2,5-difluorophenyl]-4-[(2-fluorophenyl)methyl]-1H-pyrrole-3-sulfonamide] | < 500 nM
N#Cc1ccc(NS(=O)(=O)c2c[nH]c(-c3c(F)cc(F)cc3F)c2)c(F)c1 [Cpd 489, N-(4-cyano-2-fluorophenyl)-5-(2,4,6-trifluorophenyl)-1H-pyrrole-3-sulfonamide] | < 500 nM
N#Cc1cc(F)c(NS(=O)(=O)c2c[nH]c(-c3c(F)cc(F)cc3F)c2)cc1Cl [Cpd 492, N-(5-chloro-4-cyano-2-fluorophenyl)-5-(2,4,6-trifluorophenyl)-1H-pyrrole-3-sulfonamide] | 500 to 5000 nM
O=S(=O)(Nc1nc(F)c(OCCF)cc1F)c1c[nH]c(-c2ccccc2)c1 [Cpd 494, N-[3,6-difluoro-5-(2-fluoroethoxy)pyridin-2-yl]-5-phenyl-1H-pyrrole-3-sulfonamide] | < 500 nM
Cc1cc(NS(=O)(=O)c2c[nH]c(-c3c(F)cc(F)cc3F)c2)c(F)cc1C#N [Cpd 495, N-(4-cyano-2-fluoro-5-methylphenyl)-5-(2,4,6-trifluorophenyl)-1H-pyrrole-3-sulfonamide] | 500 to 5000 nM
O=S(=O)(Nc1cc(F)c(OCC(F)F)cc1F)c1c[nH]cc1-c1cccc(F)c1 [Cpd 496, N-[4-(2,2-difluoroethoxy)-2,5-difluorophenyl]-4-(3-fluorophenyl)-1H-pyrrole-3-sulfonamide] | 500 to 5000 nM
N#Cc1cc(F)c(NS(=O)(=O)c2c[nH]cc2-c2cccc(F)c2)cc1F [Cpd 497, N-(4-cyano-2,5-difluorophenyl)-4-(3-fluorophenyl)-1H-pyrrole-3-sulfonamide] | < 500 nM

Results, then the compound that gave them:

IC50 | SMILES
5000 to 50000 nM | Cc1[nH]cc(S(=O)(=O)Nc2ccc(C#N)cc2F)c1-c1ccccc1 [Cpd 461, N-(4-cyano-2-fluorophenyl)-5-methyl-4-phenyl-1H-pyrrole-3-sulfonamide]
500 to 5000 nM | O=S(=O)(Nc1cc(F)c(OCC(F)F)cc1F)c1c[nH]cc1Cc1ccccc1 [Cpd 468, 4-benzyl-N-[4-(2,2-difluoroethoxy)-2,5-difluorophenyl]-1H-pyrrole-3-sulfonamide]
< 500 nM | COc1cccc(Cc2c[nH]cc2S(=O)(=O)Nc2cc(F)c(OC(F)F)cc2F)c1 [Cpd 480, N-[4-(difluoromethoxy)-2,5-difluorophenyl]-4-[(3-methoxyphenyl)methyl]-1H-pyrrole-3-sulfonamide]
500 to 5000 nM | O=S(=O)(Nc1cc(F)c(C(F)(F)F)cc1F)c1c[nH]cc1Cc1cccc(F)c1 [Cpd 481, N-[2,5-difluoro-4-(trifluoromethyl)phenyl]-4-[(3-fluorophenyl)methyl]-1H-pyrrole-3-sulfonamide]
500 to 5000 nM | COc1cccc(Cc2c[nH]cc2S(=O)(=O)Nc2cc(F)c(C(F)(F)F)cc2F)c1 [Cpd 482, N-[2,5-difluoro-4-(trifluoromethyl)phenyl]-4-[(3-methoxyphenyl)methyl]-1H-pyrrole-3-sulfonamide]
500 to 5000 nM | O=S(=O)(Nc1cc(F)c(OC(F)F)cc1F)c1c[nH]cc1Cc1cccc(OC(F)F)c1 [Cpd 483, N-[4-(difluoromethoxy)-2,5-difluorophenyl]-4-[[3-(difluoromethoxy)phenyl]methyl]-1H-pyrrole-3-sulfonamide]
500 to 5000 nM | O=S(=O)(Nc1cc(F)c(OC(F)F)cc1F)c1c[nH]cc1Cc1ccc(F)cc1 [Cpd 485, N-[4-(difluoromethoxy)-2,5-difluorophenyl]-4-[(4-fluorophenyl)methyl]-1H-pyrrole-3-sulfonamide]
500 to 5000 nM | Cc1ccc(Cc2c[nH]cc2S(=O)(=O)Nc2ccc(C#N)cc2F)s1 [Cpd 486, N-(4-cyano-2-fluorophenyl)-4-[(5-methylthiophen-2-yl)methyl]-1H-pyrrole-3-sulfonamide]
500 to 5000 nM | COc1ccc(Cl)cc1-c1cc(S(=O)(=O)Nc2ccc(C#N)cc2F)c[nH]1 [Cpd 488, 5-(5-chloro-2-methoxyphenyl)-N-(4-cyano-2-fluorophenyl)-1H-pyrrole-3-sulfonamide]
5000 to 50000 nM | CC(=O)c1cccc(Cc2c[nH]cc2S(=O)(=O)Nc2ccc(C#N)cc2F)c1 [Cpd 490, 4-[(3-acetylphenyl)methyl]-N-(4-cyano-2-fluorophenyl)-1H-pyrrole-3-sulfonamide]
5000 to 50000 nM | N#Cc1ccc(NS(=O)(=O)c2c[nH]c(Cc3ccccn3)c2)c(F)c1 [Cpd 491, N-(4-cyano-2-fluorophenyl)-5-(pyridin-2-ylmethyl)-1H-pyrrole-3-sulfonamide]
500 to 5000 nM | Cc1nc(-c2cc(S(=O)(=O)Nc3ccc(C#N)cc3F)c[nH]2)ccc1F [Cpd 498, N-(4-cyano-2-fluorophenyl)-5-(5-fluoro-6-methylpyridin-2-yl)-1H-pyrrole-3-sulfonamide]
5000 to 50000 nM | N#Cc1ccc(NS(=O)(=O)c2c[nH]c(-c3ccc(Cl)cn3)c2)c(F)c1 [Cpd 499, 5-(5-chloropyridin-2-yl)-N-(4-cyano-2-fluorophenyl)-1H-pyrrole-3-sulfonamide]
5000 to 50000 nM | Cc1ccc(-c2cc(S(=O)(=O)Nc3ccc(C#N)cc3F)c[nH]2)nc1 [Cpd 500, N-(4-cyano-2-fluorophenyl)-5-(5-methylpyridin-2-yl)-1H-pyrrole-3-sulfonamide]
